Measurements as given in ChEMBL document CHEMBL6083285 (J Med Chem, 2024).

Columns and labels:
[1] = Inhibition of NLRP3 inflammasome activation mediated pyroptosis in LPS-stimulated human THP-1 cells preincubated for 3 hrs followed by nigericin addition and measured after 1 hrs by resazurin dye based assay; format: cell-based
[2] = Inhibition of NLRP3 inflammasome activation in LPS-stimulated human whole blood assessed as reduction in IL-1beta release preincubated for 3 hrs followed by nigericin addition and measured after 1 hrs by Alphalisa method; format: tissue-based
[3] = Lipophilicity, logD of compound at pH 7.4; format: physicochemical; conditions: buffer
[4] = organism: Homo sapiens; test: Selectivity ratio of IC50 for inhibition of NLRP3 inflammasome activation in LPS-stimulated human whole blood assessed as reduction in IL-1beta release to IC50 for inhibition of NLRP3 inflammasome activation mediated pyroptosis in LPS-stimulated human THP-1 cells
[5] = Metabolic stability in pooled human liver microsomes assessed as intrinsic clearance at 1 uM measured upto 45 mins in presence of NADPH by UPLC-MS/MS analysis; format: ADME, Microsome; conditions: read-out: CLH

SMILES	IC50 [1]	IC50 [2]	logD [3]	Ratio IC50 [4]	microsomal CLint at 1 µM [5]
CC(C)c1cccc2c1CC(=O)NS(=O)(=O)c1cn(cn1)C(C)(C)COc1cc-2ccn1	721 nM				
CCC1(C)COc2cc(ccn2)-c2cccc(C(C)C)c2CC(=O)NS(=O)(=O)c2cnn1c2 (centres undefined)	275 nM	241 nM			
CC(C)c1cc(F)cc2c1CC(=O)NS(=O)(=O)c1cnn(c1)C1(COC1)COc1cc-2ccn1	84 nM	326 nM			
CC(C)c1cccc2c1CC(=O)NS(=O)(=O)c1cnn(c1)C(C)(C1CC1)COc1cc-2ccn1 (centres undefined)	31 nM	441 nM			
CC(C)n1ccc(S(=O)(=O)NC(=O)Nc2c(-c3ccnc(Oc4ccccc4)c3)ccc3c2CCC3)n1	59 nM	5940 nM	1.2	16	
O=C1Nc2c(ccc3c2CCC3)-c2ccnc(c2)OCCn2ccc(n2)S(=O)(=O)N1	63 nM	119 nM			
O=C1Nc2c(ccc3c2CCC3)-c2ccnc(c2)OCCCCCn2ccc(n2)S(=O)(=O)N1	289 nM	1100 nM			
CC(C)c1cccc2c1CC(=O)NS(=O)(=O)c1cnn(c1)C(C)(C)COc1cc-2ccn1	166 nM	420 nM			
COc1cc(-c2ccc3c(c2NC(=O)NS(=O)(=O)c2ccn(C(C)C)n2)CCC3)ccn1	51 nM	412 nM	0.09		12 µL/min/mg
COc1cc(-c2ccc3c(c2NC(=O)NS(=O)(=O)c2ccnc(C(C)C)c2)CCC3)ccn1	23 nM	1600 nM			
COc1cc(-c2ccc3c(c2NC(=O)NS(=O)(=O)c2cn(C(C)C)cn2)CCC3)ccn1	61 nM	621 nM			
CC(C)c1cccc2c1CC(=O)NS(=O)(=O)c1nn(cc1F)C(C)(C)COc1cc-2ccn1	480 nM				
O=C1Nc2c(ccc3c2CCC3)-c2ccnc(c2)OCCCCn2ccc(n2)S(=O)(=O)N1	176 nM	784 nM			
CC1(C)COc2cc(ccn2)-c2ccc3c(c2NC(=O)NS(=O)(=O)c2ccn1n2)CCC3	86 nM	270 nM			
O=C1Nc2c(ccc3c2CCC3)-c2ccnc(c2)OCCCn2ccc(n2)S(=O)(=O)N1	571 nM	987 nM			
COc1cc(-c2ccc3c(c2NC(=O)NS(C)(=O)=O)CCC3)ccn1	1010 nM				
CC(C)n1ccc(S(=O)(=O)NC(=O)Nc2c(-c3ccnc(OC4CCN(C)C4)c3)ccc3c2CCC3)n1 (centres undefined)	800 nM		-0.5		
CC(C)c1cccc2c1CC(=O)NS(=O)(=O)c1cnn(c1)C1(CCC1)COc1cc-2ccn1	52 nM	204 nM			
COc1cc(-c2ccc3c(c2NC(=O)NS(=O)(=O)c2cnn(C(C)C)n2)CCC3)ccn1	58 nM	814 nM			
